Tests used:
[1] = Plasma concentration in rat at 250 mg/kg, po after 2 hrs; type: ADME, organism-based
[2] = Plasma concentration in rat at 100 mg/kg, po after 2 hrs; type: ADME, organism-based
[3] = Plasma concentration in rat at 30 mg/kg, po after 2 hrs

Molecule O=C(O)c1cn(C2CC2)c2cc(N3CCNCC3)c(F)cc2c1=O [CIPROFLOXACIN] has a concentration at 2 h [1] of 3.8 µM.
Molecule COc1cccc2c1C(=O)c1c(O)c3c(c(O)c1C2=O)C[C@@](O)(C(=O)CO)C[C@@H]3O[C@H]1C[C@H](N)[C@H](O)[C@H](C)O1 [DOXORUBICIN] has a concentration at 2 h [2] of 1.15 µM.
In the case of O=c1[nH]cc(F)c(=O)[nH]1 [FLUOROURACIL], the concentration at 2 h [1] is reported as 420 µM.
For COc1ccc2cc([C@H](C)C(=O)O)ccc2c1 [NAPROXEN], the concentration at 2 h [3] was greater than 300 µM.
Work on CC(=O)O[C@H]1C(=O)[C@@]2(C)[C@H]([C@H](OC(=O)c3ccccc3)[C@]3(O)C[C@H](OC(=O)[C@H](O)[C@@H](NC(=O)c4ccccc4)c4ccccc4)C(C)=C1C3(C)C)[C@]1(OC(C)=O)CO[C@@H]1C[C@@H]2O [PACLITAXEL] yielded a concentration at 2 h [2] of 3.1 µM.

Reference: ChEMBL document CHEMBL6087387, “Carbon Monoxide as a Potential Therapeutic Agent: A Molecular Analysis of Its Safety Profiles” (J Med Chem, 2024)
